Measurements reported in patent US11117919B2, “Icariside compound, preparation method thereof, and application thereof” (FOSHAN GOLDEN HEALTH TECHNOLOGY CO., LTD., priority 2015, dated 2021).

What was measured:
[1] = test system: normal human peripheral blood mononuclear cells (PBMCs); assay: IFN-γ production by PBMCs stimulated with Anti-CD3/Anti-CD28 (ELISA); format: cell-based; settings: PBMCs treated with anti-CD3 and anti-CD28 (1 μg/ml each); icariside I 1, 10, 100 ng/ml; 12-48 h; dose-dependent
Description: Effect of icariside I on promoting normal human peripheral blood mononuclear cells (PBMCs subjected to mAb treatment) to produce γ-interferon (interferon-gamma, IFN-γ) (an experimental model mimicking enhancing immunity in human body).
(1) Preparation of icariside I solution for the test. 10 mg icariside I was dissolved in 1 ml DMSO (with initial concentration of 10 mg/ml). The solution was then transferred into small vials and stored in a freezer at −80° C. for future use.
The whole blood samples were drawn from peripheral vein of healthy volunteers. Heparin (blood:heparin=10 ml: 80 μl) was used for anticoagulation. Then, it is diluted with equal volume of Hank's solution. The diluted blood samples were slowly laid on the Ficoll separation solution (Ficoll to diluted blood ratio is 3:4) followed by Ficoll density gradient centrifugation (22° C. 2200 r/min, 20 min). After centrifugation, samples were divided into three layers in the tube. At the interface between the top and middle layers, there was a narrow band which is a mononuclear cell-based yellow-white cloud layer. The peripheral blood mononuclear cells (PBMCs) were drawn and transferred into another centrifuge tube with a pipette. […] The mononuclear cells were counted with trypan blue solution. […]
The collected cell culture supernatants with different culture time were detected with ELISA to measure the amount of cytokine IFN-γ produced. […]

[2] = test system: PFMCs from TB infected patients; assay: IFN-γ production by pleural fluid cells (PFMCs) of tuberculosis patients; format: cell-based, human; settings: 0.1, 0.5, 1 μg/ml, 48 h
Description: (2) Isolation of Pleural fluid cells (PFMCs, namely cells stimulated by tuberculosis bacteria infection) from patients suffering from tuberculosis: blood samples were taken from volunteers (vein blood of TB patients) and then anticoagulated with heparin and diluted with an equal volume of Hank's solution. The solution was centrifuged once (1800 rpm, 22° C. 8 minutes). After removal of the supernatant, an appropriate amount of ELS (erythrocyte lysate) was added for re-suspension. After 3-5 minutes, an appropriate amount of Hank's solution was added for stop and then the mixture was centrifuged twice (1800 rpm, 22° C. 8 minutes), followed by addition of RPMI1640 complete medium to adjust the PBMC cell concentration to 2×10^9 cells/L.
(3) PBMCs and PFMCs cell culture (MLC) with stimulation by a pharmaceutical: Icariside I was used at concentrations of 0.1 μg/ml, 0.5 μg/ml, and 1 μg/ml respectively to stimulate PBMCs and PFMCs under the incubation condition at 37° C. with 5% CO2 for 48 hours.
(4) ELISA assay for analysis of IFN-γ: according to the method stated in Example 5 (4), the levels of γ-interferon produced by PBMCs and PFMCs after culture with pharmaceutical stimulations were measured. […]

[3] = test system: xenograft tumor; assay: Xenograft tumor growth in nude mice; format: in vivo, BALB/c (nu/nu) female nude mice; settings: intraperitoneal 0.02 and 0.1 mg/10 g every 2 days, 30-day period
Description: The test used 4-6 weeks old BALB/c (nu/nu) female nude mice weighed 18-22 g fed in a SPF clean room with free access to food and water. […] When the tumor grew to the initial volume for administration with a pharmaceutical (100 mm^3), these mice were divided into groups with 10 mice for each group. For each group, nude mice were injected intraperitoneally: (1) the blank control group was injected with 0.1 ml/10 g solvent (5% DMSO+95% physiological saline); […] The administration was conducted every 2 days in a 30-day period. Vernier caliper was used to measure the largest longitudinal diameter (L) and transverse diameter (S) of tumor every two days. The approximate volume of the tumor was calculated with the equation of V (cm^3)=0.5×L× S^2 to plot a tumor growth curve. After the pharmaceutical treatment, the tumor was stripped and weighed for record.

COc1ccc(-c2oc3c(CC=C(C)C)c(O[C@@H]4O[C@H](CO)[C@@H](O)[C@H](O)[C@H]4O)cc(O)c3c(=O)c2O)cc1 [icariside I]
IFN-γ level produced by PBMCs [1]: significantly enhanced
effect on PFMCs in producing IFN-γ [2]: significant and dose dependent effect
growth and development of the transplanted tumor mass in nude mice [3]: significantly inhibit
